System: not given
Test: not given
Conditions: patients treated with anacetrapib along with baseline statin therapy, compared with just a statin; cited from earlier work

In the case of `COc1cc(F)c(C(C)C)cc1-c1ccc(C(F)(F)F)cc1CN1C(=O)O[C@H](c2cc(C(F)(F)F)cc(C(F)(F)F)c2)[C@@H]1C` [Anacetrapib], the “decrease of LDL-C” value is given as 40%.

For `COc1cc(F)c(C(C)C)cc1-c1ccc(C(F)(F)F)cc1CN1C(=O)O[C@H](c2cc(C(F)(F)F)cc(C(F)(F)F)c2)[C@@H]1C` [Anacetrapib], the “increase of HDL-C” value is listed as 138%.

Biological target: T1, endogenous CETP from serum (Homo sapiens, UniProt P11597)
T1 construct: yielding a concentration of approximately 15 nM endogenous CETP in the assay; from tissue; host or cells: human serum
T1 sequence (P11597 18-493): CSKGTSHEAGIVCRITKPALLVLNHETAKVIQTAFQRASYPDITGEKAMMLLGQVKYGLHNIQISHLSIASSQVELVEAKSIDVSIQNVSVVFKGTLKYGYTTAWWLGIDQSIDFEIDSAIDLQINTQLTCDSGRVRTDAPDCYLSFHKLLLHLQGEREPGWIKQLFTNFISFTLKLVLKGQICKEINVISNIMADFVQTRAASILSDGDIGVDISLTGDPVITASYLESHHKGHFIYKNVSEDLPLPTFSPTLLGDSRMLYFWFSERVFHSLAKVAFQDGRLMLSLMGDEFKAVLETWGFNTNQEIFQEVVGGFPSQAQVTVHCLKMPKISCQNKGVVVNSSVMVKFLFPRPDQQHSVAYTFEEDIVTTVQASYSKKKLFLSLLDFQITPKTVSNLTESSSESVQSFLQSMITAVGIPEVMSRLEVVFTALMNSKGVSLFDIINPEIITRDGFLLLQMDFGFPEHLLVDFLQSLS
Test: RTA assay of CETP-catalyzed CE and TG transfer in 95% human serum (95% RTA)
Type: biochemical
Conditions: RTA assay in 95% human serum; read-out: IC50 (nM) RTA with 95% HS

First: COc1ccc(CCC(=O)O)cc1-c1ccc(C(F)(F)F)cc1[C@@H]1CC[C@@H]2C1=NO[C@@H]2c1cc(C(F)(F)F)cc(C(F)(F)F)c1 [Example 4, 3-[2′-{(3S,3aR,6S)-3-[3,5-bis(trifluoromethyl)phenyl]-3a,4,5,6-tetrahydro-3H-cyclopenta[c]isoxazol-6-yl}-6-methoxy-4′-(trifluoromethyl)biphenyl-3-yl]propanoic acid]
Second: COc1ccc([C@H]2CC[C@H](C(=O)O)CC2)cc1-c1ccc(C(F)(F)F)cc1[C@@H]1CC[C@@H]2C1=NO[C@@H]2c1cc(C(F)(F)F)cc(C(F)(F)F)c1 [Example 6, trans-4-[2′-{(3S,3aR,6S)-3-[3,5-bis(trifluoromethyl)phenyl]-3a,4,5,6-tetrahydro-3H-cyclopenta[c]isoxazol-6-yl}-6-methoxy-4′-(trifluoromethyl)biphenyl-3-yl]cyclohexanecarboxylic acid]
The IC50 of the first is 9.9-fold higher: 3790 nM for the first, 383 nM for the second.

Compared with `COc1ncc(-c2ccc(C(=O)O)cc2C)cc1-c1ccc(C(F)(F)F)cc1[C@@H]1CC[C@@H]2C1=NO[C@@H]2c1cc(F)cc(C(F)(F)F)c1` [Example 7, 4-(5-(2-((3S,3aR,6S)-3-(3-fluoro-5-(trifluoromethyl)phenyl)-3a,4,5,6-tetrahydro-3H-cyclopenta[c]isoxazol-6-yl)-4-(trifluoromethyl)phenyl)-6-methoxypyridin-3-yl)-3-methylbenzoic acid], `COc1ccc(-c2ccc(C(=O)O)cc2C)cc1-c1ccc(C(F)(F)F)cc1[C@@H]1CC[C@@H]2C1=NO[C@@H]2c1cc(F)cc(C(F)(F)F)c1` [Example 8, 2″-((3S,3aR,6S)-3-(3-fluoro-5-(trifluoromethyl)phenyl)-3a,4,5,6-tetrahydro-3H-cyclopenta[c]isoxazol-6-yl)-4′-methoxy-2-methyl-4″- (trifluoromethyl)-[1,1′:3′,1″- terphenyl]-4-carboxylic acid] is 1.6-fold lower in IC50: 57 nM for the first, 36 nM for the second. The second is the more potent here.

Compared with `COc1ccc(-c2ccc(C(=O)O)cc2C)cc1-c1ccc(C(F)(F)F)cc1[C@@H]1CC[C@@H]2C1=NO[C@@H]2c1cc(C(F)(F)F)cc(C(F)(F)F)c1` [Example 5, 2″-{(3S,3aR,6S)-3-[3,5-bis(trifluoromethyl)phenyl]-3a,4,5,6-tetrahydro-3H-cyclopenta[c]isoxazol-6-yl}-4′-methoxy-2-methyl-4″- (trifluoromethyl)-1,1′:3′,1″- terphenyl-4-carboxylic acid], `COc1ncc(-c2ccc(C(=O)O)cc2C)cc1-c1ccc(C(F)(F)F)nc1[C@@H]1CC[C@@H]2C1=NO[C@@H]2c1cc(C(F)(F)F)cc(C(F)(F)F)c1` [Example 9, 4-[2′-{3-[3,5-bis(trifluoromethyl)phenyl]-3a,4,5,6-tetrahydro-3H-cyclopenta[c]isoxazol-6-yl}-2 methoxy-6′-(trifluoromethyl)-3,3′-bipyridin-5-yl]-3-methylbenzoic acid] is 2-fold higher in IC50: 145 nM for the first, 287 nM for the second. The first is the more potent here.

Same assay, conditions: RTA assay in 95% human serum; read-out: IC50 RTA (95% HS)

Going from `COc1ccc(-c2ccc(C(=O)O)cc2C)cc1-c1cnc(C(F)(F)F)cc1[C@H]1CC[C@H]2C1=NO[C@H]2c1cc(C(F)(F)F)cc(C(F)(F)F)c1` [Example 2B, 3′-(4-((3R,3aS,6R)-3-(3,5-bis(trifluoromethyl)phenyl)-3a,4,5,6-tetrahydro-3H-cyclopenta[c]isoxazol-6-yl)-6-(trifluoromethyl)pyridin-3-yl)-4′-methoxy-2-methyl-[1,1′-biphenyl]-4-carboxylic acid] to `COc1ccc(-c2ccc(C(=O)O)cc2C)cc1-c1cnc(C(F)(F)F)cc1[C@@H]1CC[C@@H]2C1=NO[C@@H]2c1cc(C(F)(F)F)cc(C(F)(F)F)c1` [Example 2A, 3′-(4-((3S,3aR,6S)-3-(3,5-bis(trifluoromethyl)phenyl)-3a,4,5,6-tetrahydro-3H-cyclopenta[c]isoxazol-6-yl)-6-(trifluoromethyl)pyridin-3-yl)-4′-methoxy-2-methyl-[1,1′-biphenyl]-4-carboxylic acid], the IC50 falls from 10000 nM to 1590 nM (6.3-fold). The second is the more potent here.

Going from `COc1ncc(-c2ccc(C(=O)O)cc2C)cc1-c1ccc(C(F)(F)F)cc1[C@@H]1CC[C@@H]2C1=NO[C@@H]2c1cc(C(F)(F)F)cc(C(F)(F)F)c1` [Example 1A, 4-(5-(2-((3S,3aR,6S)-3-(3,5-bis(trifluoromethyl)phenyl)-3a,4,5,6-tetrahydro-3H-cyclopenta[c]isoxazol-6-yl)-4-(trifluoromethyl)phenyl)-6-methoxypyridin-3-yl)-3-methylbenzoic acid] to `COc1ncc(-c2ccc(C(=O)O)cc2C)cc1-c1ccc(C(F)(F)F)cc1[C@H]1CC[C@H]2C1=NO[C@H]2c1cc(C(F)(F)F)cc(C(F)(F)F)c1` [Example 1B, 4-(5-(2-((3R,3aS,6R)-3-(3,5-bis(trifluoromethyl)phenyl)-3a,4,5,6-tetrahydro-3H-cyclopenta[c]isoxazol-6-yl)-4-(trifluoromethyl)phenyl)-6-methoxypyridin-3-yl)-3-methylbenzoic acid], the IC50 rises from 70 nM to 10000 nM (140-fold).

— patent US9663534B2, “Fused bicyclic isoxazolines as inhibitors of cholesterol ester transfer protein” (Merck Sharp & Dohme Corp., priority 2013, dated 2017)
